Assay results published in ChEMBL document CHEMBL1201862, “PubChem BioAssay data set” (2004).
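Step 1: Grow cells in 96-well plates. Step 2: Expose to compound for 48 hours at 5 concentrations. Step 3: Interpolate endpoints linearly; if unreached, use highest concentration. Abbreviation: GI50, concentration required for 50% inhibition of growth.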 Active and inactive are the calls of the source. Rule as the data show it: active = GI50 up to about 1.1 µM and inactive = higher.

How the values were obtained:
Assay in all cases: NCI anticancer screen, dose series, 48 h
CCRF-CEM = system: CCRF-CEM
OVCAR-5 = system: OVCAR-5
HCT-116 = system: HCT-116
IGROV-1 = system: IGROV-1
SNB-78 = system: SNB-78
KM12 = system: KM12
HCC 2998 = system: HCC 2998
SW-620 = system: SW-620
NCI-H522 = system: NCI-H522
NCI-H226 = system: NCI-H226
XF498 = system: XF498
LOX IMVI = system: LOX IMVI
RPMI-8226 = system: RPMI-8226
DLD-1 = system: DLD-1
SF-295 = system: SF-295
SN12C = system: SN12C
HL-60 = system: HL-60
UACC-62 = system: UACC-62
SNB-19 = system: SNB-19
RXF 393 = system: RXF 393
EKVX = system: EKVX
M14 = system: M14
CAKI-1 = system: CAKI-1
SF-539 = system: SF-539
SNB-75 = system: SNB-75
DMS-114 = system: DMS-114
HT-29 = system: HT-29
NCI-H23 = system: NCI-H23
K562 = system: K562
U-251 = system: U-251
OVCAR-4 = system: OVCAR-4
HCT-15 = system: HCT-15
HOP-92 = system: HOP-92
SK-OV-3 = system: SK-OV-3
MOLT-4 = system: MOLT-4
KM-20L2 = system: KM-20L2
ACHN = system: ACHN
UACC-257 = system: UACC-257
M19-MEL = system: M19-MEL
NCI-H460 = system: NCI-H460
DMS-273 = system: DMS-273
UO-31 = system: UO-31
TK-10 = system: TK-10
COLO 205 = system: COLO 205
SF-268 = system: SF-268
SK-MEL-5 = system: SK-MEL-5
SR = system: SR
HOP-18 = system: HOP-18
SK-MEL-2 = system: SK-MEL-2
786-0 = system: 786-0
LXFL 529 = system: LXFL 529
OVCAR-8 = system: OVCAR-8
HOP-62 = system: HOP-62
OVCAR-3 = system: OVCAR-3
A549 = system: A549
SK-MEL-28 = system: SK-MEL-28
RXF 631 = system: RXF 631
A498 = system: A498
Malme-3M = system: Malme-3M

COC(=O)/C(C=O)=C/Sc1ccccc1
GI50 (CCRF-CEM): 57.5 µM (inactive) | GI50 (OVCAR-5): 37.6 µM (inactive) | GI50 (HCT-116): 22.5 µM (inactive) | GI50 (IGROV-1): 13.9 µM (inactive) | GI50 (SNB-78): 26.5 µM (inactive) | GI50 (KM12): 24.1 µM (inactive) | GI50 (HCC 2998): 37.8 µM (inactive) | GI50 (SW-620): 37.9 µM (inactive) | GI50 (NCI-H522): 11.7 µM (inactive) | GI50 (NCI-H226): 15.8 µM (inactive) | GI50 (XF498): 40 µM (inactive) | GI50 (LOX IMVI): 8.65 µM (inactive) | GI50 (RPMI-8226): 65.5 µM (inactive) | GI50 (DLD-1): 21.4 µM (inactive) | GI50 (SF-295): 30.1 µM (inactive) | GI50 (SN12C): 19.7 µM (inactive) | GI50 (HL-60): 45.5 µM (inactive) | GI50 (UACC-62): 22.2 µM (inactive) | GI50 (SNB-19): 54.5 µM (inactive) | GI50 (RXF 393): 15.3 µM (inactive) | GI50 (EKVX): 29 µM (inactive) | GI50 (M14): 16.6 µM (inactive) | GI50 (CAKI-1): 24.2 µM (inactive) | GI50 (SF-539): 18 µM (inactive) | GI50 (SNB-75): 18.5 µM (inactive) | GI50 (DMS-114): 16.7 µM (inactive) | GI50 (HT-29): 25.5 µM (inactive) | GI50 (NCI-H23): 36.4 µM (inactive) | GI50 (K562): 50.7 µM (inactive) | GI50 (U-251): 17.1 µM (inactive) | GI50 (OVCAR-4): 45 µM (inactive) | GI50 (HCT-15): 22.6 µM | GI50 (HOP-92): 52.6 µM (inactive) | GI50 (SK-OV-3): 42.9 µM (inactive) | GI50 (MOLT-4): > 100 µM (inactive) | GI50 (KM-20L2): 29.7 µM (inactive) | GI50 (ACHN): 26.4 µM (inactive) | GI50 (UACC-257): 29.8 µM (inactive) | GI50 (M19-MEL): 20 µM (inactive) | GI50 (NCI-H460): 32.1 µM (inactive) | GI50 (DMS-273): 18.4 µM (inactive) | GI50 (UO-31): 10.5 µM (inactive) | GI50 (TK-10): 40.6 µM (inactive) | GI50 (COLO 205): 20 µM (inactive) | GI50 (SF-268): 11 µM (inactive) | GI50 (SK-MEL-5): 14.2 µM (inactive) | GI50 (SR): 40.1 µM (inactive) | GI50 (HOP-18): > 100 µM (inactive) | GI50 (SK-MEL-2): 30.9 µM (inactive) | GI50 (786-0): 15.2 µM (inactive) | GI50 (LXFL 529): 18.3 µM (inactive) | GI50 (OVCAR-8): 15.6 µM (inactive) | GI50 (HOP-62): 45.4 µM (inactive) | GI50 (OVCAR-3): 21.3 µM (inactive) | GI50 (A549): 11.3 µM (inactive) | GI50 (SK-MEL-28): 19.4 µM (inactive) | GI50 (RXF 631): 14.9 µM (inactive)

CC/C(SC)=[N+](\C)[O-]
GI50 (CCRF-CEM): 15.5 µM (inactive) | GI50 (A498): > 100 µM (inactive) | GI50 (OVCAR-5): > 100 µM (inactive) | GI50 (HCT-116): > 46.9 µM (inactive) | GI50 (IGROV-1): > 100 µM (inactive) | GI50 (SNB-78): > 100 µM (inactive) | GI50 (KM12): > 100 µM (inactive) | GI50 (HCC 2998): > 100 µM (inactive) | GI50 (SW-620): > 100 µM (inactive) | GI50 (NCI-H522): > 43.1 µM (inactive) | GI50 (NCI-H226): > 100 µM (inactive) | GI50 (XF498): > 100 µM (inactive) | GI50 (LOX IMVI): > 41.3 µM (inactive) | GI50 (RPMI-8226): > 93.1 µM (inactive) | GI50 (DLD-1): > 45.9 µM (inactive) | GI50 (SF-295): > 100 µM (inactive) | GI50 (SN12C): > 100 µM (inactive) | GI50 (HL-60): 17.9 µM (inactive) | GI50 (UACC-62): > 100 µM (inactive) | GI50 (SNB-19): > 100 µM (inactive) | GI50 (RXF 393): > 100 µM (inactive) | GI50 (EKVX): > 100 µM (inactive) | GI50 (M14): > 100 µM (inactive) | GI50 (CAKI-1): > 100 µM (inactive) | GI50 (SF-539): > 100 µM (inactive) | GI50 (SNB-75): > 67.9 µM (inactive) | GI50 (DMS-114): > 39 µM (inactive) | GI50 (HT-29): > 100 µM (inactive) | GI50 (NCI-H23): > 100 µM (inactive) | GI50 (K562): 44.2 µM (inactive) | GI50 (U-251): > 100 µM (inactive) | GI50 (OVCAR-4): > 100 µM (inactive) | GI50 (HCT-15): 57.9 µM | GI50 (HOP-92): > 100 µM (inactive) | GI50 (SK-OV-3): > 100 µM (inactive) | GI50 (MOLT-4): 32.7 µM (inactive) | GI50 (KM-20L2): > 100 µM (inactive) | GI50 (ACHN): > 100 µM (inactive) | GI50 (UACC-257): > 100 µM (inactive) | GI50 (M19-MEL): > 100 µM (inactive) | GI50 (NCI-H460): > 100 µM (inactive) | GI50 (UO-31): > 100 µM (inactive) | GI50 (TK-10): > 100 µM (inactive) | GI50 (COLO 205): > 44.8 µM (inactive) | GI50 (SF-268): > 100 µM (inactive) | GI50 (SK-MEL-5): > 100 µM (inactive) | GI50 (SR): 25.8 µM (inactive) | GI50 (HOP-18): > 100 µM (inactive) | GI50 (SK-MEL-2): > 100 µM (inactive) | GI50 (786-0): > 100 µM (inactive) | GI50 (LXFL 529): > 100 µM (inactive) | GI50 (OVCAR-8): > 100 µM (inactive) | GI50 (HOP-62): > 100 µM (inactive) | GI50 (OVCAR-3): > 100 µM (inactive) | GI50 (A549): > 100 µM (inactive) | GI50 (Malme-3M): > 100 µM (inactive) | GI50 (SK-MEL-28): > 100 µM (inactive) | GI50 (RXF 631): > 100 µM (inactive)
